Experiment: CEST imaging in vivo (diaCEST MRI) after intravaginal administration
Parameters: species or system mice
Description: Naturally cycling, estrus phase female mice were used for the intravaginal distribution study and the in vivo CEST imaging studies. In brief, female CF-1 mice (6-8 weeks old, Harlan, Indianapolis, Ind.) were housed in a reversed light cycle facility (12-hour light/12-hour dark). Mice were selected for external estrus appearance, which was confirmed upon dissection. All animal studies were performed in accordance to protocols approved by the Institutional Animal Care and Use Committee (IACUC) at the Johns Hopkins University.
Mice were anesthetized using isoflurane and positioned in a 11.7 T horizontal bore Bruker Biospec scanner (Bruker Biosciences, Billerica, Mass.). Twenty microliters of BA-loaded 7 mol %-PEG liposome suspension (4 mg BA/mL) or free BA solution at a equivalent dose were administered intravaginally via a customized catheter. Imaging was performed before and at 30 min-intervals after the intravaginal administration up to 1.5 h. Axial images were acquired at ˜2 mm above the tip of the catheter that was inserted ˜5 mm deep from the vaginal opening. […]
MR images were processed using custom-written Matlab scripts with the CEST contrast quantified by calculating the asymmetry in the magnetization transfer ratio (MTRasym) using MTRasym=(S−Δω−S+Δω)/S0 for NH protons at the frequency offset of BA from water (Δω)=5 ppm. […]

O=C1CC(=O)NC(=O)N1 [unencapsulated BA, barbituric acid]
vaginal retention time / duration of CEST contrast (intravaginal, mice, imaging up to 1.5 h): ~30 min
vaginal retention by diaCEST MRI (liposomal vs unencapsulated BA): much shorter vaginal retention time
